Source: patent publication US10111854B2, “Synthesis and use of amine-containing flavonoids as potent anti-leishmanial agents” (The Hong Kong Polytechnic University, priority 2014, dated 2018)

Key:
[1] = Cytotoxicity, L929 fibroblasts; assay type: cell-based, mouse; details: mouse
Procedure: IC50 values of known antileishmanials and the amine-containing flavonoid monomers of the present invention to promastigotes (L. amazonensis LV78, L major FV1, L. donovani HU3, L. donovani 39), macrophages (Raw 264.7 and PEM) and mouse fibroblast (L929) were determined. The anti-promastigotes activities and cytotoxicity of the amine-containing flavonoid monomers of the invention are shown in Table 1.

[2] = Cytotoxicity, peritoneal elicited macrophages (PEM); assay type: cell-based, mouse; details: mouse, Cytotoxicity IC50, PEM
[3] = tested on: L. amazonensis LV78 promastigotes; experiment: Reactive oxygen species (ROS) level, DCFDA, promastigotes; assay type: cell-based; details: 30 μM
Summary of the method: (§1)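 RAW264.7 macrophages or L. amazonensis promastigotes pre-loaded 1 h with 10 μM DCFDA (37 °C and 27 °C respectively), washed, then exposed to compounds (10 or 30 μM in macrophages; 30 μM in promastigotes). DCF fluorescence (ex 485 nm) read at 2–72 h, background from unstained cells subtracted.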

L. amazonensis = details: cutaneous leishmaniasis murine model; cited from earlier work
RAW264.7 cells = experiment: Reactive oxygen species (ROS) level, DCFDA, RAW264.7; assay type: cell-based, murine; details: for ROS induction in macrophages: RAW264.7
Summary of the method: as §1

[4] = tested on: L. donovani Ld39 promastigotes; experiment: Anti-promastigote activity (MTS assay), L. donovani Ld39; assay type: cell-based; details: Leishmania donovani, 72 hours
Summary of the method: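 Promastigotes (1×10^5 per well) in Schneider's medium pH 6.9 with 10% FBS, exposed to serial compound concentrations for 72 h at 27 °C. Viability by MTS/PMS reduction over 4 h, OD 490 nm; IC50 derived.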

[5] = tested on: L. donovani Ld39 amastigotes (SSG-resistant); experiment: Anti-amastigote activity in infected PEM, L. donovani Ld39; assay type: cell-based; details: for Selective index (a)/(c): IC50 RAW264.7 over IC50 L. donovani Ld39 amastigotes; for IC50: Leishmania donovani, 72 h, infected PEM, 3 days, Giemsa, SSG-resistant
Summary of the method: (§2)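 IC50 values derive from the number of amastigotes per 100 macrophages, counted on Giemsa-stained cover slips. Infected mouse PEM had been treated for 72 h at 37 °C.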

[6] = tested on: L. amazonensis LV78 amastigotes; experiment: Anti-amastigote activity in infected PEM, L. amazonensis LV78; assay type: cell-based; details: for Selective index (a)/(b): IC50 RAW264.7 over IC50 L. amazonensis LV78 amastigotes; for IC50: Leishmania amazonensis, 72 h, infected PEM, 3 days, Giemsa
Summary of the method: as §2

[7] = tested on: L. donovani HU3 amastigotes; experiment: Anti-amastigote activity in infected PEM, L. donovani HU3; assay type: cell-based; details: for Selective index (a)/(b): IC50 RAW264.7 over IC50 L. donovani HU3 amastigotes; for IC50: Leishmania donovani, 72 h, infected PEM, 3 days, Giemsa, SSG-sensitive
Summary of the method: as §2

Structure (SMILES)	IC50 [1] [nM]	IC50 [2] [nM]	L. amazon LV78 promastigote ROS Level, Relative fold (RF) ([3]; 2 hr) [fold]	L. amazon LV78 promastigote ROS Level, Relative fold (RF) ([3]; 4 hr) [fold]	L. amazon LV78 promastigote ROS Level, Relative fold (RF) ([3]; 6 hr) [fold]	L. amazon LV78 promastigote ROS Level, Relative fold (RF) ([3]; 20 hr) [fold]	L. amazon LV78 promastigote ROS Level, Relative fold (RF) ([3]; 46 hr) [fold]	L. amazon LV78 promastigote ROS Level, Relative fold (RF) ([3]; 72 hr) [fold]	RAW264.7 ROS Level, Relative fold (RF) (RAW264.7 cells; 10 μM, 2 hr) [fold]	RAW264.7 ROS Level, Relative fold (RF) (RAW264.7 cells; 10 μM, 4 hr) [fold]	RAW264.7 ROS Level, Relative fold (RF) (RAW264.7 cells; 10 μM, 6 hr) [fold]	RAW264.7 ROS Level, Relative fold (RF) (RAW264.7 cells; 10 μM, 8 hr) [fold]	RAW264.7 ROS Level, Relative fold (RF) (RAW264.7 cells; 10 μM, 20 hr) [fold]	ROS induction in macrophages (RAW264.7 cells; 10 μM)	RAW264.7 ROS Level, Relative fold (RF) (RAW264.7 cells; 30 μM, 2 hr) [fold]	RAW264.7 ROS Level, Relative fold (RF) (RAW264.7 cells; 30 μM, 4 hr) [fold]	RAW264.7 ROS Level, Relative fold (RF) (RAW264.7 cells; 30 μM, 6 hr) [fold]	RAW264.7 ROS Level, Relative fold (RF) (RAW264.7 cells; 30 μM, 20 hr) [fold]	RAW264.7 ROS Level, Relative fold (RF) (RAW264.7 cells; 30 μM, 46 hr) [fold]	IC50 [4] [nM]	also measured
O=c1cc(-c2ccc(OCCOCCN(CCOCCOc3ccc(-c4cc(=O)c5ccccc5o4)cc3)Cc3ccncc3)cc2)oc2ccccc12 [compound 39]	26400	> 100000	1.3	1.3	1.3	1.6	1.4	1.6	0.9	0.9	0.9	0.8	0.9	No ROS induction	1.3	1.4	1.3	1.3	1.4	210 ± 60	Foot pad lesion size (L. amazonensis): effective in reducing foot pad lesion size; Selective index (a)/(c) [5]: 47.6; IC50 [5]: 210 ± 60 nM; Selective index (a)/(b) [6]: 232.6; IC50 [6]: 430 nM; Selective index (a)/(b) [7]: >500; IC50 [7]: 200 ± 60 nM
O=c1cc(-c2ccc(OCCOCCN(Cc3ccccn3)Cc3ccccn3)cc2)oc2ccccc12 [FM09, 2-(4-(2-(2-(bis(pyridin-2-ylmethyl)amino)ethoxy)ethoxy)phenyl)-4H-chromen-4-one]	> 33000	22000	2.0	2.1	2.3	3.2	4.3	6.2	1.1	1.1	1.0	1.0	1.1	No ROS induction	1.3	1.4	1.3	1.4	2.1	500 ± 100	Selective index (a)/(c) [5]: >51.1; IC50 [5]: < 370 nM; Selective index (a)/(b) [6]: 63; IC50 [6]: 300 nM; Selective index (a)/(b) [7]: 47.3; IC50 [7]: 400 nM
